Laboratory results: paper PMC10981997, “PEDF peptide plus hyaluronic acid stimulates cartilage regeneration in osteoarthritis via STAT3-mediated chondrogenesis” (Bone & Joint Research, 2024)

Key:
articular cartilage (AC) = assay: In vivo BrdU labelling and immunostaining of chondrogenic markers in damaged AC; set-up: species or system rat; settings: inhibitor 1 mM in 25 µl 5% HA intra-articular 60 min before 29-mer/HA at days 8 and 12
Protocol: Rats were anaesthetized by an intraperitoneal injection of xylazine (10 mg/kg) and then the right knees were injected with MIA (1 mg dissolved in 25 µl of sterile saline), using a 27-gauge needle through the patellar ligament of the knees.[18],[19] The left knee joints (control) were injected with saline. To prepare the 29-mer/HA, the 29-mer was dissolved in dimethylsulfoxide (DMSO) to make a 10 mM stock solution. Equal volumes of DMSO and 29-mer (0.5 µl) were dissolved in HA. At days 8 and 12 after MIA injection, the right knees (n = 6 per group) were randomly injected by: 1) 29-mer/25 µl of 5% HA (final concentration of 29-mer at 0.2 mM); 2) DMSO vehicle/5% HA; 3) control peptide/5% HA; 4) 5% HA alone; and 5) 29-mer/25 µl of phosphate-buffered saline (PBS; final concentration of 29-mer at 0.2 mM). […]
BrdU was reconstituted in DMSO as stock (80 mM). […] Deparaffinized sections were treated with 1N HCl at RT for 1 h, and DNA synthesis was assessed by anti-BrdU antibody. […] Images were captured using a Zeiss epifluorescence microscope with a CCD camera (Zeiss, Germany), and blinded quantification was performed in triplicate by manually counting within each section. […]

BM-MSCs = assay: BrdU incorporation (proliferation) of BM-MSCs in expansion medium; format: cell-based, rat; settings: pretreatment before 29-mer 10 μM, p < 0.001 vs 29-mer
Text: Sprague-Dawley rats were anaesthetized and their femora were aseptically harvested, washed in a mixture of PBS and 1% penicillin/streptomycin for five minutes, dissected of all soft-tissue, transected at their epiphysis, and their marrow cavity rinsed repeatedly with a mixture of heparin (AGGLUTEX INJ 5,000 U/ml; working conc. 100 U/ml) and Dulbecco’s Modified Eagle Medium (DMEM; Gibco, Thermo Fisher Scientific). The harvested cells were collected, dispersed by pipetting, and centrifuged at 1,000× g for five minutes at RT. Cell pellets were resuspended with DMEM and then the cell suspension was transferred to a 15 ml centrifuge tube containing 5 ml of Percoll (1.073 g/ml; MilliporeSigma). After centrifugation at 1,500× g for 30 minutes, the mononuclear cells in the middle layer were obtained, washed three times with PBS, and suspended in expansion medium (low-glucose DMEM with 10% heat-inactivated FBS, 1% penicillin/streptomycin). […] BrdU immunostaining of BM-MSCs was performed as in Ho et al’s[14] study.
BM-MSCs were expanded for seven days in culture and then exposed to the 29-mer (10 μM) for 24 hours. Cell proliferation was detected by BrdU pulse-labelling for four hours and analyzed by BrdU immunostaining (red colour; Figure 1a).

| Structure (SMILES) | effect of inhibitor on 29-mer/HA-induced BrdU-labelled chondrocytes (articular cartilage (AC)) | effect of inhibitor pretreatment on the 29-mer-induced BrdU+ levels (BM-MSCs) |
| --- | --- | --- |
| CN(C)C(=O)Nc1cccc(-c2ccc(N(C)C)cc2)c1 [atglistatin, Atglistatin] | blocked | significantly suppressed |
| C[C@H]1COC2=C1C(=O)C(=O)c1c2ccc2c1CCCC2(C)C [CPT, cryptotanshinone] | blocked | significantly suppressed |
